Among the data in PubChem BioAssay (NCI) are TGI and GI50 values, retold here.

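Dose response: 5 concentrations. Exposure: 48 h. Format: 96-well plates. Endpoint: linear interpolation; highest concentration if not reached. The concentration for 50% growth inhibition is given as GI50. TGI: concentration producing complete growth inhibition.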

Test systems include 786-0 renal; CCRF-CEM leukemia; MCF7 breast; PC-3 prostate; RPMI-8226 leukemia; RXF 393 renal; SK-MEL-28 melanoma; TK-10 renal; U251 CNS; UO-31 renal.
Common to all, as to assay: NCI tumour cell line growth inhibition, 48 h

As to `COc1ccc(OC)c2c(=S)c3ccccc3[nH]c12`, the TGI with 786-0 renal was more than 100 µM; in the test with CCRF-CEM leukemia, more than 86.1 µM; in the test on MCF7 breast it was more than 100 µM; in the test on PC-3 prostate, more than 100 µM; in the test with RPMI-8226 leukemia, more than 100 µM; with RXF 393 renal it was more than 100 µM. In addition, the TGI in the test with SK-MEL-28 melanoma is more than 100 µM; in the test with TK-10 renal it was 100 µM; with U251 CNS it was more than 100 µM; in the test on UO-31 renal, more than 100 µM.
Take `OCc1ccc(N(CCN2CCCC2)Cc2ccc(F)cc2)cc1Cl`: the GI50 with 786-0 renal is 21 µM; in the test on CCRF-CEM leukemia, 23.8 µM; in the test with MCF7 breast it was 13.7 µM; in the test on PC-3 prostate, 15.6 µM; with RPMI-8226 leukemia it was 18.5 µM; in the test with RXF 393 renal, 23.3 µM. The GI50 in the test with SK-MEL-28 melanoma was 15.9 µM; in the test on TK-10 renal, 15 µM; in the test with U251 CNS, 15.5 µM; in the test on UO-31 renal, 13.8 µM. Further, the TGI worked out at 66 µM in the test with 786-0 renal; 91.5 µM with CCRF-CEM leukemia; 32.1 µM in the test with MCF7 breast; 37 µM in the test with PC-3 prostate; 47.4 µM in the test on RPMI-8226 leukemia; 67.1 µM with RXF 393 renal. Moreover, the TGI in the test with SK-MEL-28 melanoma was found to be 30.2 µM; in the test on TK-10 renal it was 34.8 µM; in the test on U251 CNS, 32.4 µM; in the test with UO-31 renal, 31.2 µM.
In the case of `NS(=O)(=O)c1ccc(NC(=O)c2cccc3cc4ccccc4nc23)cc1`, the TGI with 786-0 renal, in the test on CCRF-CEM leukemia, in the test on MCF7 breast, with PC-3 prostate, in the test with RPMI-8226 leukemia and in the test on RXF 393 renal was more than 100 µM throughout. The TGI in the test on SK-MEL-28 melanoma was more than 100 µM; in the test on TK-10 renal, more than 91.2 µM; with U251 CNS, more than 100 µM; in the test with UO-31 renal, more than 100 µM.
For the compound `COC1=C(Br)C(=O)C2=C(C1=O)C1C3=C(C(=O)C=CC3=O)C2c2ccccc21` (stereo not given), the GI50 in the test on 786-0 renal is 14.9 µM; in the test on CCRF-CEM leukemia, 3.16 µM; in the test with MCF7 breast, 22.7 µM; with PC-3 prostate it was 4.35 µM; in the test with RPMI-8226 leukemia it was 4.04 µM; in the test on RXF 393 renal it was 18.3 µM. The GI50 in the test with SK-MEL-28 melanoma was 30.7 µM; in the test on TK-10 renal, 23.8 µM; in the test on U251 CNS, 4.31 µM; in the test with UO-31 renal, 12.2 µM. Further, the TGI in the test on 786-0 renal is 36.1 µM; in the test on CCRF-CEM leukemia, more than 100 µM; in the test with MCF7 breast it was more than 100 µM; in the test with PC-3 prostate, 25.6 µM; in the test with RPMI-8226 leukemia, more than 100 µM; with RXF 393 renal, 37.5 µM. Also, the TGI with SK-MEL-28 melanoma is more than 100 µM; in the test with TK-10 renal it was 43.5 µM; in the test on U251 CNS, 22.2 µM; in the test with UO-31 renal, 41.2 µM.
For the compound `CS(=O)(=O)OCCN(CCOS(C)(=O)=O)c1ccc(C=O)cc1`, the TGI in the test with 786-0 renal is 7.86 µM; in the test on CCRF-CEM leukemia, 46.2 µM; with MCF7 breast it was more than 75.9 µM; in the test on PC-3 prostate it was 86 µM; with RPMI-8226 leukemia it was 75.4 µM; with RXF 393 renal, 1.72 µM. The TGI in the test with SK-MEL-28 melanoma is 52.6 µM; in the test with TK-10 renal, 17 µM; with U251 CNS, 45.7 µM; in the test with UO-31 renal, 3.09 µM.
Turning to `O=C(Nc1cccc(-n2cc(-c3ccncc3)c(-c3ccc(O)c(Cl)c3)n2)c1)Nc1cccc(C(F)(F)F)c1`, the GI50 is 2.15 µM in the test with 786-0 renal; 2.12 µM with CCRF-CEM leukemia; 2.15 µM in the test with MCF7 breast; 2.47 µM with PC-3 prostate; 1.77 µM with RPMI-8226 leukemia; 1.19 µM in the test on RXF 393 renal. The GI50 is 1.95 µM in the test with SK-MEL-28 melanoma, 3.29 µM in the test on TK-10 renal, 1.4 µM with U251 CNS and 2.01 µM in the test with UO-31 renal. In addition, the TGI turned out to be 9.2 µM in the test with 786-0 renal; 7.92 µM in the test on CCRF-CEM leukemia; 6.59 µM with MCF7 breast; 8.96 µM with PC-3 prostate; 5.13 µM in the test on RPMI-8226 leukemia; 4.05 µM with RXF 393 renal. Besides, the TGI in the test on SK-MEL-28 melanoma was determined as 6.18 µM; in the test on TK-10 renal, 9.3 µM; in the test on U251 CNS, 4.8 µM; in the test with UO-31 renal it was 7.05 µM.
On to `CNCCCNCCCN1C(=O)c2ccc3c4c(ccc(c24)C1=O)C(=O)N(CCCNCc1ccccc1OC)C3=O`, for which the GI50 with 786-0 renal was 1.27 µM; in the test with CCRF-CEM leukemia, 0.465 µM; with MCF7 breast, 0.512 µM; with PC-3 prostate it was 1.6 µM; with RPMI-8226 leukemia it was 1.64 µM; in the test with RXF 393 renal it was 1.89 µM. Moreover, the GI50 was 1.01 µM in the test with SK-MEL-28 melanoma, 2.58 µM in the test with TK-10 renal, 1.61 µM with U251 CNS and 5.88 µM in the test with UO-31 renal. Further, the TGI was 4.56 µM in the test on 786-0 renal; 4.53 µM in the test with CCRF-CEM leukemia; 3.21 µM in the test with MCF7 breast; 10.1 µM with PC-3 prostate; 9.44 µM in the test on RPMI-8226 leukemia; 5.71 µM with RXF 393 renal. Besides, the TGI was 2.79 µM in the test with SK-MEL-28 melanoma, 14.1 µM in the test on TK-10 renal, 7.67 µM in the test on U251 CNS and 27.5 µM in the test on UO-31 renal.
For `CCOC(=O)Nc1nc2c(C)cccc2s1`, the GI50 with 786-0 renal is more than 100 µM; with CCRF-CEM leukemia, 54.8 µM; in the test with MCF7 breast, 29.2 µM; with PC-3 prostate it was 48.9 µM; with RPMI-8226 leukemia, 31.4 µM; in the test on RXF 393 renal, more than 100 µM. Moreover, the GI50 was more than 100 µM in the test on SK-MEL-28 melanoma, 90.9 µM with TK-10 renal, 77.5 µM with U251 CNS and 33.5 µM in the test on UO-31 renal. For the same compound, the TGI in the test with 786-0 renal, in the test on CCRF-CEM leukemia, in the test on MCF7 breast, with PC-3 prostate, in the test on RPMI-8226 leukemia and in the test with RXF 393 renal was more than 100 µM each time. The TGI with SK-MEL-28 melanoma, in the test with TK-10 renal, with U251 CNS and with UO-31 renal was more than 100 µM in each case.
For the compound `CN(C)CCCn1c2nc(=O)[nH]c(=O)c-2nc2cc(Cl)c(Cl)cc21`, the GI50 with 786-0 renal was 8.79 µM; with CCRF-CEM leukemia it was 3.81 µM; in the test on MCF7 breast, 0.398 µM; in the test with PC-3 prostate, 2.67 µM; with RPMI-8226 leukemia it was 3.25 µM; with RXF 393 renal, 13.2 µM. In addition, the GI50 in the test with SK-MEL-28 melanoma was 18.9 µM; in the test with TK-10 renal, 4.62 µM; in the test with U251 CNS it was 3.08 µM; in the test on UO-31 renal, 2.73 µM. Also, the TGI in the test on 786-0 renal is 23.2 µM; with CCRF-CEM leukemia it was 18.7 µM; in the test with MCF7 breast it was 1.64 µM; with PC-3 prostate, 8.8 µM; with RPMI-8226 leukemia it was 12.9 µM; in the test on RXF 393 renal, 26.3 µM. The TGI in the test with SK-MEL-28 melanoma is 34 µM; with TK-10 renal it was 14.1 µM; with U251 CNS, 10.5 µM; with UO-31 renal, 10.9 µM.
For `COc1ccccc1/C=C/C(=O)/C=C/c1ccccc1OC`, the GI50 was 1.85 µM in the test with 786-0 renal; 2.04 µM in the test on CCRF-CEM leukemia; 0.37 µM with MCF7 breast; 2.26 µM with PC-3 prostate; 2.25 µM in the test on RPMI-8226 leukemia; 1.6 µM in the test on RXF 393 renal. The GI50 with SK-MEL-28 melanoma is 1.67 µM; with TK-10 renal, 3.52 µM; in the test with U251 CNS, 1.55 µM; in the test with UO-31 renal, 1.83 µM. The TGI stood at 3.59 µM in the test on 786-0 renal; 9.19 µM with CCRF-CEM leukemia; 3.81 µM in the test with MCF7 breast; 7.03 µM in the test with PC-3 prostate; 8.43 µM in the test on RPMI-8226 leukemia; 3.06 µM with RXF 393 renal. Besides, the TGI is 3.18 µM in the test on SK-MEL-28 melanoma, 8.83 µM in the test on TK-10 renal, 3.24 µM with U251 CNS and 3.33 µM in the test on UO-31 renal.
As to `Cn1c(=O)c(Oc2ccccc2)cc2cnc(NC3CCOCC3)nc21`, the GI50 in the test on 786-0 renal, with CCRF-CEM leukemia, in the test with MCF7 breast, with PC-3 prostate, with RPMI-8226 leukemia and in the test with RXF 393 renal was more than 25 µM throughout. Also, the GI50 in the test on SK-MEL-28 melanoma, with TK-10 renal, in the test with U251 CNS and with UO-31 renal was more than 25 µM throughout. The TGI with 786-0 renal, in the test with CCRF-CEM leukemia, in the test with MCF7 breast, in the test with PC-3 prostate, in the test on RPMI-8226 leukemia and with RXF 393 renal was more than 25 µM throughout. The TGI in the test on SK-MEL-28 melanoma, in the test with TK-10 renal, in the test on U251 CNS and with UO-31 renal was more than 25 µM each time.
Take `Fc1ccc2[nH]cc(SSc3c[nH]c4ccc(F)cc34)c2c1`: the GI50 is 6.8 µM with 786-0 renal; 2.54 µM with CCRF-CEM leukemia; 3.87 µM with MCF7 breast; 0.861 µM with PC-3 prostate; 1.5 µM in the test with RPMI-8226 leukemia; 0.659 µM in the test on RXF 393 renal. The GI50 with SK-MEL-28 melanoma is 5.71 µM; in the test on TK-10 renal, 10.1 µM; in the test with U251 CNS it was 3.82 µM; in the test with UO-31 renal, 4.83 µM. Besides, the TGI in the test with 786-0 renal was 24.8 µM; in the test with CCRF-CEM leukemia it was 8.56 µM; in the test with MCF7 breast it was 20 µM; in the test on PC-3 prostate it was 12 µM; in the test with RPMI-8226 leukemia, 6.46 µM; in the test on RXF 393 renal, 17 µM. The TGI with SK-MEL-28 melanoma is 20.3 µM; in the test on TK-10 renal, 24.6 µM; in the test on U251 CNS, 28 µM; in the test with UO-31 renal, 52.3 µM.
As to `COc1ccc(/C=C/NC=O)cc1`, the TGI in the test with 786-0 renal, with CCRF-CEM leukemia, in the test on MCF7 breast, in the test on PC-3 prostate, with RPMI-8226 leukemia and in the test on RXF 393 renal was more than 100 µM throughout. Further, the TGI in the test with SK-MEL-28 melanoma, in the test with TK-10 renal, with U251 CNS and in the test on UO-31 renal was more than 100 µM in each case.
